According to patent US20230391868A1, “COMPOSITIONS FOR AND METHODS OF TREATING CANCER” (The George Washington University, priority 2022, published 2023):

Assays:
[1] = tested on: SM1 melanoma tumors; experiment: Immunophenotyping of SM1 tumors by flow cytometry; type: in vivo, mouse
Experimental: Flow Cytometry: Immunophenotyping of tumors by flow cytometry was performed following the protocol previously described (Knox T, et al. (2019) Sci. Rep. 9:6136; Banik D, et al. (2020) Cancer Res. 80:3649-3662). When control tumors reached the endpoint (2000 mm^3), mice were euthanized following the IACUC protocol at The George Washington University, and tumors were processed into a single-cell suspension for analysis by flow cytometry with tumor digestion buffer containing collagenases I and IV, hyaluronidase V, and DNAse I. Dead cells were discriminated using LIVE/DEAD™ Fixable Aqua Dead Cell Stain Kit (ThermoFisher Scientific, L34965). The antibodies used to stain cell surface markers were all purchased from BioLegend (San Diego, CA) unless otherwise mentioned. Myeloid cell surface markers include: APC/Fire 750 anti-mouse CD45.2 (clone 104), Brilliant Violet 421 anti-mouse/human CD11b (clone M1/70), Brilliant Violet 605 anti-mouse Ly-6G/Ly-6C (Gr-1) (clone RB6-8C5), Brilliant Violet 785 anti-mouse F4/80 (clone BM8), APC anti-mouse CD80 (clone 16-10A1), PerCP/Cyanine5.5 anti-mouse H-2Kd (clone SF1-1.1), PE/Cy7 anti-mouse CD206 (MMR) (clone C068C2), PE anti-mouse CD163 (clone 5B11), and Alexa Fluor 700 anti-mouse CD3 (clone 17A2). T cell surface markers are as follows: Brilliant Violet 785 anti-mouse CD45.2 (clone 104), PerCP/Cy5.5 anti-mouse CD3 (clone 17A2), APC/Fire 750 anti-mouse CD8a (clone 53-6.7), Brilliant Violet 650 anti-mouse CD4 (clone GK1.5), Brilliant Violet 605 anti-mouse CD44 (clone IM7), PE anti-mouse CD62L (clone MEL-14), and Pacific Blue anti-mouse CD25 (clone PC61). NK cell surface markers are as follows: Brilliant Violet 785 anti-mouse CD45.2 (clone 104), PerCP/Cy5.5 anti-mouse CD3 (clone 17A2), PE/Cy7 anti-mouse CD49b (pan-NK cells) (clone DX5), Brilliant Violet 421 anti-mouse CD16/32 (clone 93), Alexa Fluor 700 anti-mouse CD8a (clone 53-6.7), and PE anti-mouse 4-1BB (clone 17B5). Multicolor flow data was acquired using a BD FACS Celesta Cell Analyzer, and data analysis was performed with FlowJo software version 10.3. The gating strategies for each immune cell panel can be found in FIG. 11A-FIG. 11C.
To evaluate the effects of the single arms and combination therapy, the tumors were harvested at the experimental endpoint and immunophenotyping was performed by flow cytometry. Overall, the combination of NextA and anti-CD47 had immunomodulatory effects and enhanced immune cell infiltration in the TME. […] The different macrophage populations in the tumors were evaluated (FIG. 6B).

[2] = tested on: A31A7 macrophages and BMDMs; experiment: Macrophage M1/M2 marker gene expression by qRT-PCR; type: cell-based, mouse
Experimental: Bone marrow-derived macrophages were isolated from the femurs and tibias of wild-type C57/Bl6, HDAC6 knockout (C57BL/6J-Hdac6em2Lutzy/J, 029318, Jackson Laboratory), or UBC-GFP (C57BL/6-Tg(UBC-GFP)30Scha/J, 004353, Jackson Laboratory). Isolated bone marrow cells were cultured in RPMI 1640 complete medium with 10% FBS, 1% NEAA, and 1% penicillin-streptomycin in 5% CO2 at 37° C. Medium was supplemented with murine recombinant M-CSF (20 ng/mL, 576404, Biolegend) to differentiate monocytes into macrophages. Three days after bone marrow isolation, undifferentiated and floating cells were washed with PBS and replaced with fresh RPMI media. […]
Macrophages were polarized to M1-like phenotype using 50 ng/mL of interferon gamma (IFNγ, 575306, Biolegend) and 100 ng/mL of bacterial lipopolysaccharide (LPS, L2880, Sigma Aldrich, St. Louis, MO) for 24 hours. To polarize macrophages towards the M2-like phenotype, macrophages were stimulated with 20 ng/mL of IL-4 (214-14, PeproTech) and 20 ng/mL of IL-13 (575904, Biolegend). THP1 monocytes were treated with 5 ng/mL of phorbol 12-myristate 13-acetate (PMA) to induce differentiation into macrophages. Once converted to macrophages, media was replaced to remove PMA prior to treatment and/or polarization. Polarization towards M1 and M2 phenotypes was performed with respective recombinant human cytokines from PeproTech: 50 ng/mL of IFNγ (300-02), 20 ng/mL IL-4 (200-04), and 20 ng/mL IL-13 (200-13). 100 ng/mL LPS was also used to polarize toward the M1 phenotype. 3. In vivo Studies.
qRT-PCR: Total RNA was extracted from cells using the Trizol reagent according to manufacturer's instructions (ThermoFisher Scientific, 15596018). Samples were then processed immediately or stored at −80° C. RNA was quantified using a NanoDrop One Spectrophotometer (ThermoFisher Scientific). The 260/280 ratios were routinely over 1.8. Sample cDNA was produced using the iScript cDNA synthesis kit (Bio-Rad, 1708891). Target mRNA was quantified using MyIQ single-color real-time PCR detection system from Bio-Rad (Bio-Rad, Hercules, CA) and iQ SYBR green Supermix (Bio-Rad, 1708882). The following primers were synthesized by Invitrogen (Waltham, MA) with sequences designed by Origene (Rockville, MD): mouse R-actin (MP200232), mouse Nos2 (MP208933), mouse MRC1 (MP207800), human R-actin (HP204660), human IL-1β (HP200544), human MRC1 (HP206121), human NOS2 (HP200591), human CD209 (HP214086), mouse SIRPα (MP215450), mouse LRP1 (MP207604), human LRP1 (HP206040), mouse MFGE8 (MP208190), human MFGE8 (HP225757), mouse CD36 (MP201923), human CD36 (HP200058), and mouse CD47 (MP201932). Primers for mouse ARG-1 (PPM31770C) and human SIRPα (QT01031051) were purchased from Qiagen (Hilden, Germany). Human CD47 primer sequences were obtained from Sudo T, et al and are 5′-[…]-3′ (sense) (SEQ ID NO:01) and 5′-[…]-3′ (antisense) (SEQ ID NO:02) (Sudo T, et al. (2017) Oncol. Lett. 14:801-809). Human CD86 primer sequences are 5′-[…]-3′ (sense) (SEQ ID NO:03) and 5′-[…]-3′ (antisense) (SEQ ID NO:04). Mouse CD80 sequences are 5′-[…]-3′ (sense) (SEQ ID NO:05) and 5′-[…]-3′ (antisense) (SEQ ID NO:06). Cycling conditions were set as per manufacturer's instructions. Single product amplification was confirmed by melting curve analysis. Quantification is expressed in arbitrary units and target mRNA levels were normalized to R-actin expression.

## CCCCN(Cc1ccc(C(=O)NO)cc1)C(=O)Nc1ccccc1 [NextA, Nexturastat A]
[1]; SM1 tumors
  M1/M2 ratio: increased
[1]; SM1 tumors (FIG. 6B)
  M1-like macrophages (CD80+, H2Kd+, F4/80+): significantly increased
  M2-like macrophages (CD206+, CD163+, F4/80+): significantly decreased
[1]; SM1 tumors (FIG. 6C)
  CD3 T cell infiltration: increased
[1]; SM1 tumors (FIG. 6J)
  total NKT, CD8+ NKT, and CD137+ CD8+ NKT cells in the TME: significantly increased
[2]; A31A7, 5 μM of NextA
  phenotypic changes in both macrophage polarizations: elicited observable phenotypic changes
[2]; A31A7, different concentrations of NextA, qRT-PCR (FIG. 7B)
  expression of Cd80 in M1 polarized macrophages: concentration-dependent effect
[2]; A31A7, different concentrations of NextA, qRT-PCR (FIG. 7C)
  expression of Arg1 in M2 polarized macrophages: concentration-dependent effect
[2]; A31A7 and BMDMs polarized to M1 or M1(IFNγ), 5 μM (FIG. 1A)
  Nos2 and Cd80 at the transcriptional level: tended to significantly upregulate
[2]; A31A7 cells and BMDMs, M2, qRT-PCR, 5 μM (FIG. 1C)
  expression of M2-associated markers Arg1 and Mrc1: significantly downregulated
